Reference: patent US20170291905A1, “ARGININE […] INHIBITORS AND USES THEREOF” (Epizyme, Inc., priority 2014, published 2017)
Structures can show the parent of a compound that is named as a salt.

The compounds below were run against full-length human PRMT8 isoform 1 (Homo sapiens, UniProt Q9NR22) (assay: PRMT8 biochemical assay (3H-SAM Flashplate, histone H4 31-45 peptide)). Details: 1.5 nM PRMT8, 30 min preincubation, 150 nM peptide.
Sequence of full-length human PRMT8 isoform 1 (Q9NR22 whole entry, canonical isoform): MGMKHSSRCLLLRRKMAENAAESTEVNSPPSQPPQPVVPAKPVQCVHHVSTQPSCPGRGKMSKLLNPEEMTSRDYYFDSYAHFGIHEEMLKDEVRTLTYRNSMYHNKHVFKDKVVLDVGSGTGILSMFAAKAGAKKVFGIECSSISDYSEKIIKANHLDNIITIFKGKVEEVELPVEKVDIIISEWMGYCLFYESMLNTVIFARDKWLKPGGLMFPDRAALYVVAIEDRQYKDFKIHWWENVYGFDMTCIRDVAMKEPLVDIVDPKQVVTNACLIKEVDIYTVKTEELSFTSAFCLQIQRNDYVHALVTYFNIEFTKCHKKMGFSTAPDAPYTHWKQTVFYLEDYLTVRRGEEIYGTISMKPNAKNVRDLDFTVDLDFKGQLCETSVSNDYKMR
Source text: S-adenosylmethionine (SAM), S-adenosylhomocysteine (SAH), bicine, Tween20, dimethylsulfoxide (DMSO), bovine skin gelatin (BSG), isopropyl-β-D-thiogalactopyranoside (IPTG), and Tris(2-carboxyethyl)phosphine hydrochloride solution (TCEP) were purchased from Sigma-Aldrich at the highest level of purity possible. ^3H-SAM was purchase from American Radiolabeled Chemicals with a specific activity of 80 Ci/mmol. 384-well streptavidin Flashplates were purchased from PerkinElmer.
Peptide representative of human histone H4 residues 31-45 was synthesized with an N-terminal linker-affinity tag motif and a C-terminal amide cap by 21st Century Biochemicals. The peptide was purified by high-performance liquid chromatography (HPLC) to greater than 95% purity and confirmed by liquid chromatography mass spectrometry (LC-MS). The sequence was Biot-Ahx-[…]-amide (SEQ ID NO.:8).
The resulting construct encodes an N-terminal GST tag and a thrombin cleavage sequence
E. coli (BL21(DE3) Gold, Stratagene) made competent by the CaCl2 method were transformed with the PRMT8 construct and ampicillin selection. Protein over-expression was accomplished by growing the PRMT8 expressing E. coli clone and inducing expression with 0.3 mM IPTG at 16° C. The culture was grown for 12 hours, harvested by centrifugation, and stored at −80° C. for purification.
GST-tagged PRMT8 was eluted with 50 mM Tris, 2 mM glutathione, pH 7.8. Pooled fractions were cleaved by thrombin (10U) and dialysed in buffer A. GST was removed by reloading the cleaved protein sample onto glutathione sepharose column and PRMT8 was collected in the flow-through fractions. PRMT8 was purified further by ceramic hydroxyapatite chromatography. The column was washed with 50 mM phosphate buffer, 100 mM NaCl, 5% glycerol, 5 mM […], pH 7.8 and PRMT8 was eluted by 100 mM phosphate in the same buffer. Protein was concentrated and buffer was exchanged to 50 mM Tris, 300 mM NaCl, 10% glycerol, 5 mM β-mercaptoethanol, pH 7.8 by ultrafiltration. The purity of recovered protein was 89%.
General Procedure for PRMT8 Enzyme Assays on Peptide Substrates.
The assays were all performed in a buffer consisting of 20 mM Bicine (pH=7.6), 1 mM TCEP, 0.005% BSG, and 0.002% Tween 20, prepared on the day of use. Compounds in 100% DMSO (1 ul) were spotted into a polypropylene 384-well V-bottom plates (Greiner) using a Platemate Plus outfitted with a 384-channel head (Thermo Scientific). DMSO (1 ul) was added to Columns 11, 12, 23, 24, rows A-H for the maximum signal control and 1 ul of SAH, a known product and inhibitor of PRMT8, was added to columns 11, 12, 23, 24, rows I-P for the minimum signal control. A cocktail (40 ul) containing the PRMT8 enzyme was added by Multidrop Combi (Thermo-Fisher). The compounds were allowed to incubate with PRMT8 for 30 min at room temperature, then a cocktail (10 ul) containing ^3H-SAM and peptide was added to initiate the reaction (final volume=51 ul). The final concentrations of the components were as follows: PRMT8 was 1.5 nM, ^3H-SAM was 50 nM, non-radiolabeled SAM was 550 nM, peptide was 150 nM, SAH in the minimum signal control wells was 1 mM, and the DMSO concentration was 2%. The assays were stopped by the addition of non-radiolabeled SAM (10 ul) to a final concentration of 400 uM, which dilutes the ^3H-SAM to a level where its incorporation into the peptide substrate is no longer detectable. 50 ul of the reaction in the 384-well polypropylene plate was then transferred to a 384-well Flashplate and the biotinylated peptides were allowed to bind to the streptavidin surface for at least 1 hour before being washed once with 0.1% Tween20 in a Biotek ELx405 plate washer. The plates were then read in a PerkinElmer TopCount plate reader to measure the quantity of ^3H-labeled peptide bound to the Flashplate surface, measured as disintegrations per minute (dpm) or alternatively, referred to as counts per minute (cpm). […]
In the case of `CNCCN(C)Cc1c[nH]nc1C1CC(COCC2CC2)CC(COCC2CC2)C1` (stereo not shown) [compound 2], the IC50 is reported as 365 nM. Compound `Cc1[nH]nc([C@H]2CC[C@@]3(CC2)CC(C)(C)CO3)c1CN(C)CCN` [compound 51, N1-((3-((5s,8s)-3,3-dimethyl-1-oxaspiro[4.5]decan-8-yl)-5-methyl-1H-pyrazol-4-yl)methyl)-N1-methylethane-1,2-diamine] has an IC50 of 14.2 nM. In the case of `CNCCN(C)Cc1c(Cl)ncn1[C@H]1CC[C@]2(CC1)CC(C)(C)CO2` [compound 97], the IC50 is reported as 526 nM. In the case of `CNCCN(C)Cc1nn[nH]c1[C@H]1CC[C@@]2(CC1)CC(C)(C)CO2` [compound 67], the IC50 is reported as 19.8 nM. Compound `Cc1[nH]nc(C2CCC3(CC2)CC(C)(C)CO3)c1CN(C)CCN` (stereo not shown) [compound 59] has an IC50 of 17.5 nM. For `CNCCN(C)Cc1cnnn1[C@H]1CC[C@@]2(CC1)CC(C)(C)CO2` [compound 65], the IC50 was > 10000 nM. With `CNCCN(C)Cc1nn(C)cc1[C@H]1CC[C@]2(CC1)CC(C)(C)CO2` [compound 103] the IC50 was 42.7 nM. With `CNCCN(C)Cc1nncn1[C@H]1CC[C@@]2(CC1)CC(C)(C)CO2` [compound 68] the IC50 was 3480 nM. For `CNCCNCc1c[nH]nc1[C@H]1CC[C@]2(CC1)CC(C)(C)CO2` [compound 29, N1-((3-((5r,8r)-3,3-dimethyl-1-oxaspiro[4.5]decan-8-yl)-1H-pyrazol-4-yl)methyl)-N2-methylethane-1,2-diamine], the IC50 was 258 nM. Compound `Cc1[nH]nc([C@H]2CC[C@]3(CC2)CC(C)(C)CO3)c1CN(C)CCN` [compound 52, N1-((3-((5r,8r)-3,3-dimethyl-1-oxaspiro[4.5]decan-8-yl)-5-methyl-1H-pyrazol-4-yl)methyl)-N1-methylethane-1,2-diamine] has an IC50 of 23.1 nM. `CNCCN(C)Cc1nc(C)sc1[C@H]1CC[C@@]2(CC1)CC(C)(C)CO2` [compound 77] gave an IC50 of 27.7 nM. For `CC[C@]12CC[C@](CC)(C[C@@H](c3n[nH]cc3CN(C)CCNC)C1)O2` [compound 38, N1-((3-((1R,3s,5S)-1,5-diethyl-8-oxabicyclo[3.2.1]octan-3-yl)-1H-pyrazol-4-yl)methyl)-N1,N2-dimethylethane-1,2-diamine], the IC50 was 177 nM. `CCC1(CC)C[C@]2(CC[C@H](c3n[nH]cc3CN(C)CCNC)CC2)OC1=O` [compound 33, (5s,8s)-3,3-diethyl-8-(4-((methyl(2-(methylamino)ethyl)amino)methyl)-1H-pyrazol-3-yl)-1-oxaspiro[4.5]decan-2-one] gave an IC50 of 95.8 nM. `CNCCN(C)Cc1n[nH]cc1[C@H]1CC[C@@]2(CC1)CC(C)(C)CO2` [compound 115] showed an IC50 of 16.2 nM. For `CCC1CC(c2n[nH]cc2CN(C)CCNC)CC(C(=O)NCCOC)C1(C)C` (stereo not shown) [compound 21, 3-ethyl-N-(2-methoxyethyl)-2,2-dimethyl-5-[4-([methyl[2-(methylamino)ethyl]amino]methyl)-1H-pyrazol-3-yl]cyclohexane-1-carboxamide dihydrochloride], the IC50 was 614 nM. Work on `CCOCC1(COCC)CCC(c2n[nH]cc2CN(C)CCN(C)C)CC1` [compound 121] yielded an IC50 of 58.2 nM. Work on `CC[C@]12CC[C@](CC)(C[C@H](c3n[nH]cc3CN(C)CCNC)C1)O2` [compound 37, N1-((3-((1R,3r,5S)-1,5-diethyl-8-oxabicyclo[3.2.1]octan-3-yl)-1H-pyrazol-4-yl)methyl)-N1,N2-dimethylethane-1,2-diamine] yielded an IC50 of 45.5 nM. With `CNCCN(C)Cc1ccnn1[C@H]1CC[C@]2(CC1)CC(C)(C)CO2` [compound 50, N1-((1-((5r,8r)-3,3-dimethyl-1-oxaspiro[4.5]decan-8-yl)-1H-pyrazol-5-yl)methyl)-N1,N2-dimethylethane-1,2-diamine] the IC50 was 32.2 nM. Work on `CNCCN(C)Cc1nnc(C)n1[C@H]1CC[C@@]2(CC1)CC(C)(C)CO2` [compound 71] yielded an IC50 of 4320 nM. For `CNCCN(C)Cc1cncn1[C@H]1CC[C@@]2(CC1)CC(C)(C)CO2` [compound 76], the IC50 was 15.7 nM. Work on `CNCCN(C)Cc1c[nH]nc1C1CCC2(CCC(OC)CC2)CC1` (stereo not shown) [compound 9, N1-((3-(9-methoxyspiro[5.5]undecan-3-yl)-1H-pyrazol-4-yl)methyl)-N1,N2-dimethylethane-1,2-diamine] yielded an IC50 of 11.1 nM. Work on `CNCCN(C)Cc1nocc1[C@H]1CC[C@@]2(CC1)CC(C)(C)CO2` [compound 117] yielded an IC50 of 40.8 nM. `CN(CCN)Cc1nn(C)cc1[C@H]1CC[C@]2(CC1)CC(C)(C)CO2` [compound 102] showed an IC50 of 38.9 nM. `CNCCN(C)Cc1c(C)[nH]nc1[C@H]1CC[C@]2(CC1)CC(C)(C)CO2` [compound 58] gave an IC50 of 55.1 nM. Work on `CNCCN(C)Cc1nn[nH]c1[C@H]1CC[C@]2(CC1)CC(C)(C)CO2` [compound 89] yielded an IC50 of 137 nM. `CNCCN(C)Cc1c[nH]nc1[C@H]1CC[C@]2(CCCOC2)CC1` [compound 4, N1-((3-((6s,9s)-2-oxaspiro[5.5]undecan-9-yl)-1H-pyrazol-4-yl)methyl)-N1,N2-dimethylethane-1,2-diamine] gave an IC50 of 16 nM. In the case of `CNCCN(C)Cc1c[nH]nc1C1=CCC(COCC(F)(F)F)CC1` (stereo not shown) [compound 16, N1,N2-dimethyl-N1-((3-(4-((2,2,2-trifluoroethoxy)methyl)cyclohex-1-en-1-yl)-1H-pyrazol-4-yl)methyl)ethane-1,2-diamine], the IC50 is reported as 26.4 nM. `CCOCC1(COCC)CCC(c2nn(C)cc2CN(C)CCN)CC1` [compound 124] gave an IC50 of 25.4 nM. With `CCOCC1(COCC)CC=C(c2n[nH]cc2CN(C)CCNC)CC1` [compound 60] the IC50 was 22.5 nM. `CNCCN(C)Cc1cn(C)nc1C1CCC(C)(C)[C@@H](C(=O)NCC(C)C)C1` (stereo partly shown) [compound 25] gave an IC50 of 2790 nM. `CCC1(CC)C[C@]2(CC[C@@H](c3n[nH]cc3CN(C)CCNC)CC2)OC1=O` [compound 34, (5r,8r)-3,3-diethyl-8-(4-((methyl(2-(methylamino)ethyl)amino)methyl)-1H-pyrazol-3-yl)-1-oxaspiro[4.5]decan-2-one] gave an IC50 of 146 nM. `CNCCN(C)Cc1c[nH]nc1[C@H]1CC[C@@]2(CCCOC2)CC1` [compound 5, N1-((3-((6r,9r)-2-oxaspiro[5.5]undecan-9-yl)-1H-pyrazol-4-yl)methyl)-N1,N2-dimethylethane-1,2-diamine] gave an IC50 of 17.7 nM. `CNCCN(C)Cc1c[nH]nc1C1CCC(COCC(C)C)(COCC(C)C)CC1` [compound 6] gave an IC50 of 62.4 nM. In the case of `CNCCN(C)Cc1c(C)[nH]nc1[C@H]1CC[C@@]2(CC1)CC(C)(C)CO2` [compound 57], the IC50 is reported as 32.7 nM. `CNCCN(C)Cc1scnc1[C@H]1CC[C@]2(CC1)CC(C)(C)CO2` [compound 84] gave an IC50 of 24.2 nM. `CNCCN(C)Cc1c[nH]nc1[C@H]1CC[C@]2(CCCCO2)CC1` [compound 127, methyl([2-[methyl([3-[(6s,9r)-1-oxaspiro[5.5]undecan-9-yl]-1H-pyrazol-4-yl]methyl)amino]ethyl])amine bistrifluoroacetic acid salt] gave an IC50 of 16.2 nM. For `CNCCN(C)Cc1c(C)noc1[C@H]1CC[C@@]2(CC1)CC(C)(C)CO2` [compound 113], the IC50 was 51.5 nM. Work on `CNCCN(C)Cc1c[nH]nc1C1CCC(OCCCOC)C2(CCCC2)C1` (mixture of isomers) [compound 19, N1-((3-(10-(3-methoxypropoxy)spiro[4.5]decan-7-yl)-1H-pyrazol-4-yl)methyl)-N1,N2-dimethylethane-1,2-diamine dihydrochloride] yielded an IC50 of 30.1 nM. In the case of `CNCCN(C)Cc1sc(C)nc1[C@H]1CC[C@@]2(CC1)CC(C)(C)CO2` [compound 78], the IC50 is reported as 33.8 nM.

Same assay, conditions: […] PRMT8, 30 min preincubation, 150 nM peptide
For `CNCCN(C)Cc1nn(C)nc1C1CCC2(CC1)CC(C)(C)CO2` (stereo not shown) [compound 86], the IC50 was 49.9 nM.
